# Columns and labels:
# [1] = Solubility of imiquimod in excipient formulation, by HPLC; assay type: physicochemical; details: about 3 mg/mL imiquimod in about 30% w/w PEG 400, 10% w/w glycerin, 3% w/w polysorbate 80 at pH 4
# Protocol: (§1) The effect of iontophoresis on the permeation profile of imiquimod across hairless rat skin in vitro was examined. The solubility of imiquimod was tested in various solvent matrices and a formulation with acceptable solubility was employed for further in vitro and in vivo studies as described herein. The following methods were performed.
# Using the above methods, various excipients were tested to prepare a formulation with sufficient solubility for imiquimod.
# [2] = In vitro permeation across hairless rat skin, Franz diffusion cells, with tape stripping and skin extraction; assay type: in vitro ADME; details: for cumulative amount of drug permeated at 24 hr, passive: passive diffusion
# Protocol: as §1
# For the in vitro studies, Franz diffusion cells were employed. Hairless rats were euthanized by carbon dioxide asphyxiation and the abdominal skin area was excised and carefully cleaned to remove excess fat. The skin was then mounted onto Franz diffusion cells. Citrate buffer with 20% ethanol was employed as the receptor buffer and the drug formulation was placed in the donor chamber. For iontophoretic delivery, a silver/silver chloride electrode system was used. […] Samples were taken at predetermined time points and the receptor chamber was replenished with fresh receptor buffer accordingly. At completion, the skin samples were dismounted and washed with the receptor buffer to remove excess drug. Tape stripping and skin extraction studies were performed to quantify the amount of the drug in the skin. All the samples were analyzed via HPLC (C18 column; mobile phase: acetonitrile/50 mM ammonium acetate (70:30); injection volume: 10 μl UV detection at 250 nm).
# [3] = In vivo skin depot formation and desorption, 2% w/w imiquimod formulation with Transcutol P; parameters: species or system hairless rat
# Protocol: In this example the formation and pharmacokinetics of an imiquimod skin depot following iontophoretic delivery in an in vivo hairless rat model were examined.
# (§2) A topical delivery system containing 2% w/w drug formulation (consisting of 20% PEG 400, 10% propylene glycol, 20% Transcutol P, 3% Tween 80 and 10% glycerin; in w/w, final pH 3.6) was employed. The formulation was loaded into a cartridge and iontophoresis (0.2 mA/cm^2, 15 min) was used to deliver the drug into the skin using the hairless rat model as described herein. A passive delivery control was run for comparison. […] Transepidermal water loss (TEWL) measurements were taken to ensure the removal of the stratum corneum.
# [4] = Skin irritation or redness observed in the in vivo studies; parameters: species or system hairless rat; details: any of the in vivo studies
# Protocol: as §2
# [5] = cited from earlier work
# [6] = In vivo skin depot quantification, 0.3% w/w imiquimod formulation
# From the text: The effect of iontophoresis on its ability to enhance delivery of 0.3% w/w imiquimod (pH 4.0) formulation in vivo into the stratum corneum and the underlying skin (lower epidermis and dermis) was examined.
# Hairless rats were anesthetized using Ketamine and Xylazine. An area on the abdomen was marked and cleaned. Drug formulation was loaded onto an iontophoretic drug cartridge and was secured on the area with tape. For iontophoretic delivery, the cartridge was connected to a current source and a TransQ iontophoretic patch (Iomed) served as the counter electrode. A current density of 0.2 mA/cm^2 was applied for 15 min. At the end of 15 min, the drug loaded cartridges were removed and excess drug on the site was removed. Tape stripping (3M Transpore™ tape) was performed to quantify the drug levels in the stratum corneum. Transepidermal water loss (TEWL) measurements were also taken to ensure the complete removal of the stratum corneum. The rats were then euthanized and the skin samples were excised for further analysis. A skin extraction assay was performed to quantify the drug levels in the underlying skin immediately after 15 min iontophoresis or passive.
# [7] = in vivo, 2% w/w, 72 hrs after application
# [8] = 0.3% w/w, 0.2 mA/cm^2 for 15 min
# [9] = 0.3% w/w, pH 4.0, after about 15 min of treatment
smiles,measurement,setting,value
CC(C)Cn1cnc2c(N)nc3ccccc3c21 [Imiquimod],solubility level,[1],about 0.3%
same,"cumulative amount of drug permeated at 24 hours, iontophoresis","[2]; 0.3% w/w formulation, 0.2 mA/cm^2 for 15 min, then passive diffusion to 24 hr",22.41 μg/cm^2
same,permeation following iontophoresis,"[2]; 0.3% w/w formulation, iontophoresis for 15 min, end of 24 hr",approximately 22 pg/cm
same,"cumulative amount of drug permeated at 24 hr, passive",[2]; 0.3% w/w formulation,2.24 μg/cm^2
same,"cumulative amount of drug permeated at 24 hr, passive","[2]; 0.3% w/w formulation, listed as imiquimod",approximately 2 μg/cm^2
same,"amount of drug in the underlying skin, iontophoretic","[2]; in vitro, 0.2 mA/cm^2 15 min, end of 24 hr study, skin extraction",6.31 µg
same,"amount of drug in the stratum corneum, iontophoretic","[2]; in vitro, 0.2 mA/cm^2 15 min, end of 24 hr study, tape stripping",7.53 µg
same,"amount of drug in the underlying skin, passive","[2]; in vitro, end of 24 hr study, skin extraction",6.27 µg
same,"amount of drug in the stratum corneum, passive","[2]; in vitro, end of 24 hr study, tape stripping",1.31 µg
same,imiquimod delivered to the skin,[3]; 15 min iontophoresis at 0.2 mA/cm^2,approximately 14 ug
same,"total skin drug level, iontophoretic delivery, after 15 min","[3]; in vivo, 2% w/w, pH 3.6, 0.2 mA/cm^2, 15 min",14.19 ± 2.07 µg
same,"total skin drug level, passive delivery, after 15 min","[3]; in vivo, 2% w/w, pH 3.6, passive, 15 min",3.26 ± 0.63 µg
same,"drug detection in the stratum corneum at 72 hrs, iontophoretic","[3]; in vivo, 2% w/w, 72 hrs",still detected
same,"drug detection in the underlying skin at 72 hrs, iontophoretic","[3]; in vivo, 2% w/w, 72 hrs",No drug was detected
same,"drug detection in the underlying skin at 72 hrs, passive","[3]; in vivo, 2% w/w, 72 hrs",No drug was detected
same,"total skin drug level, iontophoretic delivery, at 72 hrs",[3]; [7],5.50 ± 2.76 µg
same,"total skin drug level, passive delivery, at 72 hrs",[3]; [7],1.96 ± 0.37 µg
same,irritation or redness of the skin,[4],not observed
same,log P,[5],2.7
same,pKa,[5],7.3
same,"drug in the stratum corneum, iontophoresis",[6]; [8],11.91 µg
same,"drug in the underlying tissue, iontophoresis",[6]; [8],0.591 µg
same,"drug detection in the stratum corneum at 72 hr, iontophoresis","[6]; 0.3% w/w, 72 hr from treatment",still detected
same,"drug detection in the stratum corneum at 72 hr, passive","[6]; 0.3% w/w, 72 hr from treatment",no drug was detected
same,"drug detection in the underlying skin at 72 hr, iontophoresis","[6]; 0.3% w/w, 72 hr from treatment",still detected
same,"drug in the underlying tissue at 72 hr, passive","[6]; 0.3% w/w, 72 hr from treatment",small amount of drug was also present
same,"drug level in the stratum corneum, iontophoresis vs passive","[6]; 0.3% w/w, after 15 min of treatment",10 fold
same,"drug in the stratum corneum, passive",[6]; [9],1.07 µg
same,"drug in the underlying skin, passive",[6]; [9],0.40 µg
same,residence time of the depot in the stratum corneum after iontophoresis,[6]; iontophoresis,more than 72 hr

# From US20100331812A1, “Pharmaceutical Formulations for Iontophoretic Delivery of an Immunomodulator” (Nitric BioTherapeutics, Inc., priority 2009, published 2010)
